Results as given in US6514991B2, “Phenyl-oxo-tetrahydroquinolin-3-yl beta-3 adrenergic receptor agonists” (Wyeth, priority 2000, dated 2003).

Target: T1, β3-AR (Homo sapiens, UniProt P13945)
T1 construct: Full-length β3-AR clones (402 amino acids) containing the last 6 amino acids of hβ3-AR are prepared; expressed in transfected cells; host or cells: CHO cells
Experiment: cAMP accumulation (SPA) in CHO cells transfected with β3-AR
Format: cell-based
Settings: for EC50: CHO cells transfected with human β3-AR, cAMP, 30 min incubation, 10^-9 to 10^-5 M; for IA(β3): maximal response relative to maximal response of isoproterenol at 10^-5 M
Method: The ability of the compounds of this invention to treat or inhibit disorders related to insulin resistance or hyperglycemia was confirmed with representative compounds of this invention in the following standard pharmacological test procedures, which measured the binding selectivity of the β1-, β2-, and β3-AR. Binding to the receptors was measured in Chinese Hamster ovary (CHO) cells that were transfected with β1-, β2-, and β3-AR's. The following briefly summarizes the procedures used and results obtained.
cDNA was constructed by ligating four polymerase chain reaction (PCR) products using the following primers: an ATG-Narl fragment, sense primer 5′-[…]3′ and anti-sense primer 5′ […]3′; a Narl-Accl fragment, 5′[…]3′ as sense and 5′[…]3′ as anti-sense primer; an Accli-Styl fragment, sense primer 5° […]3′ and anti-sense primer 5′[…]3′ and a Styl-TAG fragment, with sense primer 5° […]3′ and anti-sense primer 5° […]3′. The corresponding primer sequences are described in Mantzoros, C. S., et.al., Diabetes, 1996, 45, 909-914. The four fragments are ligated into a pUC 18 plasmid (Gibco-BRL) and sequenced. Full-length β3-AR clones (402 amino acids) containing the last 6 amino acids of hβ3-AR are prepared with the β3-βARpcDNA3 from ATTC.
Clones expressing receptor levels of 70 to 110 fmoles/mg protein were used in the test procedures. CHO cells were grown in 24-well tissue culture plates in Dulbecco's Modified Eagle Media with 10% fetal bovine serum, MEM non-essential amino acids, Penicillin-Streptomycin and Geneticin. On the day of test procedure, growth medium was replaced with preincubation media (Dulbecco's Modified Eagle Media) and incubated for 30 minutes at 37° C. Pre-incubation medium was replaced with 0.2 ml treatment medium containing DMEM media containing 250 μM IBMX (isobutyl-1-methylxantine) plus 1 mM ascorbic acid with test compound dissolved in DMSO. Test compounds were assayed over a concentration range of 10^−9 M to 10^−5M for β3-AR transfected cells and 10^−8 to 10^−4 M for […] transfected cells. Isoproterenol (10^−5 M) was used as an internal standard for comparison of activity. Cells were incubated at 37° C. on a rocker for 30 min with the β3-AR transfected cells and 15 min with β1-AR and β2-AR transfected cells. Incubation was stopped by the addition of 0.2N HCl and the acid was neutralized with 2.5N NaOH. The plates, containing the cells and neutralized media, were stored at −20° C. until ready to test for cAMP using the SPA test kit (Amersham).
Data collected from the SPA test procedure were analyzed as percent of the maximal isoproterenol response at 10^−5 M. Activity curves were plotted using the SAS statistical and graphics software.

T1 sequence (P13945 whole entry): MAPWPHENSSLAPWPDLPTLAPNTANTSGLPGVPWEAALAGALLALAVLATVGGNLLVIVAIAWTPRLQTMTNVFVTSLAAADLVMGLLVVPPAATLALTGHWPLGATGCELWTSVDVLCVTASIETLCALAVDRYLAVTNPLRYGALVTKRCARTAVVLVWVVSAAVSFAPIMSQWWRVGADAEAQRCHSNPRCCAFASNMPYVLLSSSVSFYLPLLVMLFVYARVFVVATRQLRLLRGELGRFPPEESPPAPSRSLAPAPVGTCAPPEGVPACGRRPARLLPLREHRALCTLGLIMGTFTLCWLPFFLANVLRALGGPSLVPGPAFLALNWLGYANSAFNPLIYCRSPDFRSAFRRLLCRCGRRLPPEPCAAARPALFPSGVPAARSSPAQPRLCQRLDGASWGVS

EC50 | IA(β3) | Compound
90 nM | 1.0 | CCOC(=O)CC1Cc2cc(-c3cccc(CNC[C@H](O)c4ccc(O)c(NS(C)(=O)=O)c4)c3)ccc2NC1=O (some centres unmarked) [Example 2]
40 nM | 1.1 | COC(=O)CC1Cc2ccc(-c3ccc(CNC[C@H](O)c4ccc(O)c(NS(C)(=O)=O)c4)cc3)cc2NC1=O (stereo partly drawn) [Example 1, [7-(4-{[(2R)-2-Hydroxy-2-(4-hvdroxy-3-methanesulfonylamino-phenyl)-ethylamino]-methyl}-phenyl)-2-oxo-1,2,3,4-tetrahydro-quinolin-3-yl]-acetic Acid Methyl Ester]
60 nM | 1.0 | COC(=O)CC1Cc2ccc(-c3cccc(CNC[C@H](O)c4ccc(O)c(NS(C)(=O)=O)c4)c3)cc2NC1=O (stereo partly drawn) [Example 3, [7-(3-{[(2R)-2-Hydroxy-2-(4-hydroxy-3-methanesulfonylamino-phenyl)-ethylamino]-methyl}-phenyl)-2-oxo-1,2,3,4-tetrahydro-quinolin-3-yl]-acetic acid methyl ester]
70 nM | 1.0 | Ethyl [6-(4-{[(2R)-2-hydroxy-2-{4-hydroxy-3-[(methylsulfonyl)amino]-phenyl}ethyl)amino]methyl}phenyl)-2-oxo-1,2,3,4-tetrahydroquinolin-3-yl]acetate [Example 4]
